Source: ChEMBL document CHEMBL1201862, “PubChem BioAssay data set” (2004)
Calls of active or inactive are those of the source.

Experiments:
Nonstructural protein 1 = Nonstructural protein 1 (Influenza A virus, UniProt Q194T2); format: functional, Influenza A virus (A/California/07/2009(H1N1))
[1] = molecular target: Eukaryotic translation initiation factor 4E (Mus musculus, UniProt P63073); assay: blockers of eIF4G binding by eIF4E – biochemical, TR-FRET, dose response (AID 855); format: functional;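 note: potency for disrupting eIF4E binding to eIF4GI seen as loss of FRET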
Eukaryotic translation initiation factor 4E, sequence (P63073 whole entry): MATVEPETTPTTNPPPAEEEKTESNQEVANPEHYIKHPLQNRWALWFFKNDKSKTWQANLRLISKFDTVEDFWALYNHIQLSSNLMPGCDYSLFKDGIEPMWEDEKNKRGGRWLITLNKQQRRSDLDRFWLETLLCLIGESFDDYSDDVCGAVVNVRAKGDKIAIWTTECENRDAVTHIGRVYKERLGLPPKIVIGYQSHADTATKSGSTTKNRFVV

[2] = molecular target: DNA dC->dU-editing enzyme APOBEC-3G (Homo sapiens, UniProt Q9HC16); assay: Dose Response confirmation of small molecule APOBEC3G DNA Deaminase Inhibitors via a fluorescence-based single-stranded DNA deaminase assay. [Related pubchem assays (depositor defined):AID493012, AID493028]; format: functional
DNA dC->dU-editing enzyme APOBEC-3G, sequence (Q9HC16 whole entry): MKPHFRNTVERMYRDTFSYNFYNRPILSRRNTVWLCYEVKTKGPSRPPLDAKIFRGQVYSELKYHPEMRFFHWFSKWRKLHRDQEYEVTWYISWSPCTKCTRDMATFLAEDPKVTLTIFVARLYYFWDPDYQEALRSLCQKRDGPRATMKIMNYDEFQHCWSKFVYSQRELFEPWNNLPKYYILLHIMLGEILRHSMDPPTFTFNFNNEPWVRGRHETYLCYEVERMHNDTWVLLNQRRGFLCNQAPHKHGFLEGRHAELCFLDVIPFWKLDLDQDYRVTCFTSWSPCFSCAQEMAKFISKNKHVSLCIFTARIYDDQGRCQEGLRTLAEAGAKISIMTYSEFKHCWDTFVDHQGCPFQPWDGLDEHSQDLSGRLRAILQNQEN

[3] = molecular target: T1, Short transient receptor potential channel 4 (Mus musculus, UniProt Q9QUQ5); assay: block of DAMGO-driven TRPC4 calcium entry – cell-based, HEK293 TRPC4/mu-opioid, Fluo-4 calcium, dose response (AID 434942); format: functional;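 note: potency of inhibitors blocking the TRPC4 calcium response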
T1 sequence (Q9QUQ5 whole entry): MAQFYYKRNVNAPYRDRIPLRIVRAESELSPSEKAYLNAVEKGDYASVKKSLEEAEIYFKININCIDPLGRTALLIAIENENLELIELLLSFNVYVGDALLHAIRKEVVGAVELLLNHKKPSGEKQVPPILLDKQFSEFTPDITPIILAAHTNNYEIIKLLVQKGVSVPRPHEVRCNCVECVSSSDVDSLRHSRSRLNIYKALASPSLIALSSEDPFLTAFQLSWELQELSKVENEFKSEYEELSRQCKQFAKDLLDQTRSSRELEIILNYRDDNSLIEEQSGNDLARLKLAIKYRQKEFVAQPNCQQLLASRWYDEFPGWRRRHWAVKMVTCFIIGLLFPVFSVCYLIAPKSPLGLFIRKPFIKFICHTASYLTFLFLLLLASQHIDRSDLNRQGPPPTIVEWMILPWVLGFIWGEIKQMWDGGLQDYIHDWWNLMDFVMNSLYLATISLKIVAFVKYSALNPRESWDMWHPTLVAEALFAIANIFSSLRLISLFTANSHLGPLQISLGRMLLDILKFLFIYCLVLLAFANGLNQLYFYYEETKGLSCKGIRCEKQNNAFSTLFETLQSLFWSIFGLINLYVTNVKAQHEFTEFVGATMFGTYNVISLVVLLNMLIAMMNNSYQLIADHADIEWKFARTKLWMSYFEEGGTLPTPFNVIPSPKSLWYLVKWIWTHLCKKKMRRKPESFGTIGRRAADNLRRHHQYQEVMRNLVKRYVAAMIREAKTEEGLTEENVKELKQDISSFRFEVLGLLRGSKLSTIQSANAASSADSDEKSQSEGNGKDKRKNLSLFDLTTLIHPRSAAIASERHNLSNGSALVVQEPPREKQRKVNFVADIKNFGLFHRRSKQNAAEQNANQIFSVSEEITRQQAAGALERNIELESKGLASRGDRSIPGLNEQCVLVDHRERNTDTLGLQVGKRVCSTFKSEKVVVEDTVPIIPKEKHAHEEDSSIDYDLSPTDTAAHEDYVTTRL

[4] = molecular target: T2, Ubiquitin-conjugating enzyme E2 N (Homo sapiens, UniProt P61088); format: functional;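 note: Dose-response confirmation in a TR-FRET assay detecting UBC13-driven polyubiquitin chain formation, inhibition measured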
T2 sequence (P61088 whole entry): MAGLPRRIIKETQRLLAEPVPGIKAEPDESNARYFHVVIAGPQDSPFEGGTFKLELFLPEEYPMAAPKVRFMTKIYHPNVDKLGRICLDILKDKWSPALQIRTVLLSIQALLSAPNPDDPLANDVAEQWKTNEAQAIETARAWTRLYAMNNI

[5] = molecular target: T3, Replicative DNA helicase DnaB (Mycobacterium tuberculosis, UniProt P9WMR3); assay: DnaB intein splicing inhibitors, dose response, biochemical, cell-free fluorescence (AID 449749); format: functional
T3 sequence (P9WMR3 whole entry): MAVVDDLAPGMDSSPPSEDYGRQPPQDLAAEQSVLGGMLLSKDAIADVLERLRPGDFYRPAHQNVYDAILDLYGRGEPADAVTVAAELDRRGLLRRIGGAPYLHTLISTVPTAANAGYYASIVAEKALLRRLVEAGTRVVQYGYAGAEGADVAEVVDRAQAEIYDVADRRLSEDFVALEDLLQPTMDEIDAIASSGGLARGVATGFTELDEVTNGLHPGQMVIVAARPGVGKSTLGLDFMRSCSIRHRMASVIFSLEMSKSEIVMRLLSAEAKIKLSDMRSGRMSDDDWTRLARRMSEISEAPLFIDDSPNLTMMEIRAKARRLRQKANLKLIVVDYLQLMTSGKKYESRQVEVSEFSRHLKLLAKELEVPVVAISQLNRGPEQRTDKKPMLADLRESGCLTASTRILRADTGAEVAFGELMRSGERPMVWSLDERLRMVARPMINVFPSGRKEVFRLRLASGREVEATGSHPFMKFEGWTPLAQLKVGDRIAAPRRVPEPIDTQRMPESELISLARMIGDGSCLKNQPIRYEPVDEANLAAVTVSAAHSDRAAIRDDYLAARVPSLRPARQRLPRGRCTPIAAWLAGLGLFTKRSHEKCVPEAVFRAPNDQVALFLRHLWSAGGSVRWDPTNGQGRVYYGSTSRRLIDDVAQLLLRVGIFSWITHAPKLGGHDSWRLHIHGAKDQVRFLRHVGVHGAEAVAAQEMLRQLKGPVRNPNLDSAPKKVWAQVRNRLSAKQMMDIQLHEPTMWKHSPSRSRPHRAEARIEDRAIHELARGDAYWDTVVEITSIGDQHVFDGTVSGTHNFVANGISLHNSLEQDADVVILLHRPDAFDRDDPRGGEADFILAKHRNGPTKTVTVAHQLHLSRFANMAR

Protein RecA = molecular target: T4, Protein RecA (Mycobacterium tuberculosis, UniProt P9WHJ3); assay: Fluorescence Cell-Free Homogeneous Dose Retest to Identify Inhibitors of RecA-Intein Splicing Activity. [Related pubchem assays (depositor defined):AID2097, AID2223, AID489010, AID492950]; format: functional
T4 sequence (P9WHJ3 whole entry): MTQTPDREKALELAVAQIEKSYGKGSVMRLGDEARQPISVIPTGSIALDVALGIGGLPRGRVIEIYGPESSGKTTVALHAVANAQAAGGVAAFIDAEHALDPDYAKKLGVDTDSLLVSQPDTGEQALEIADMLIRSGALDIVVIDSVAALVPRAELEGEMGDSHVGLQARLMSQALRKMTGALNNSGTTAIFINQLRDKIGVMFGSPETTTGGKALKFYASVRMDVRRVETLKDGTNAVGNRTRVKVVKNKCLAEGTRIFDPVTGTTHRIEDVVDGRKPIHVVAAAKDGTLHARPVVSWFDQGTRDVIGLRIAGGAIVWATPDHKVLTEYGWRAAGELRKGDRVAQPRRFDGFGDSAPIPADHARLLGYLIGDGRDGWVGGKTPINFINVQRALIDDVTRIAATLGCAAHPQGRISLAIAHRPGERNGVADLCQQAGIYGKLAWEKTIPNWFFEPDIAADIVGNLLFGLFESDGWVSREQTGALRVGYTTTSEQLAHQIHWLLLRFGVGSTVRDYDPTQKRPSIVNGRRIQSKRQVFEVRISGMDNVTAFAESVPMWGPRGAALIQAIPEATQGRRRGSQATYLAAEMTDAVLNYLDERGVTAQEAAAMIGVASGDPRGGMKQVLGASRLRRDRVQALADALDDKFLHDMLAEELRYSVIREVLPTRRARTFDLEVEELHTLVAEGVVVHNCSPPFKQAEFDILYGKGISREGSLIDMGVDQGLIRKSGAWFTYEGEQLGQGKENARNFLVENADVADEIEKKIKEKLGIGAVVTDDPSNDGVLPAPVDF

Leucine aminopeptidase = molecular target: T5, Leucine aminopeptidase (Plasmodium falciparum 3D7, UniProt Q8IL11); assay: P. falciparum M17LAP inhibitors, primary screen, biochemical, fluorogenic H-Leu-NHMec substrate, 1536-well (AID 1619); format: functional
T5 sequence (Q8IL11 whole entry): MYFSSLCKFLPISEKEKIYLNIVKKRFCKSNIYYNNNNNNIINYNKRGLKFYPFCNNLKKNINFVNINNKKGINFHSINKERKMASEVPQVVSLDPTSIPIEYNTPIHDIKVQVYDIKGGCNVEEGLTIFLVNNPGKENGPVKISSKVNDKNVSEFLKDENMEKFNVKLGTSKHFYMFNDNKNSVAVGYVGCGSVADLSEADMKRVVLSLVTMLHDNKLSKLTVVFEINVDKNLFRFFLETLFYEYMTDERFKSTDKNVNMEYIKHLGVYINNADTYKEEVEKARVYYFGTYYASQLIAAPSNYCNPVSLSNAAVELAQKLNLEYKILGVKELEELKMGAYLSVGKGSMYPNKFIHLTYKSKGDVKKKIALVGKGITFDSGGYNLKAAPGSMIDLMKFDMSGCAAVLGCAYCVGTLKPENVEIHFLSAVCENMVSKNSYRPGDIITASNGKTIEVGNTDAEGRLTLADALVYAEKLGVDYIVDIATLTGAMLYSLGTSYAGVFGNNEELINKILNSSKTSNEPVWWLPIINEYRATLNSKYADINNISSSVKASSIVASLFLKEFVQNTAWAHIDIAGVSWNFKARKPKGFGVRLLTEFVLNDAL

Large T antigen = Large T antigen (Simian virus 40, UniProt P03070); format: functional, Betapolyomavirus macacae;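 note: Confirmatory-stage PubChem screen for compounds that inhibit SV40 T antigen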
Large T antigen, sequence (P03070 whole entry): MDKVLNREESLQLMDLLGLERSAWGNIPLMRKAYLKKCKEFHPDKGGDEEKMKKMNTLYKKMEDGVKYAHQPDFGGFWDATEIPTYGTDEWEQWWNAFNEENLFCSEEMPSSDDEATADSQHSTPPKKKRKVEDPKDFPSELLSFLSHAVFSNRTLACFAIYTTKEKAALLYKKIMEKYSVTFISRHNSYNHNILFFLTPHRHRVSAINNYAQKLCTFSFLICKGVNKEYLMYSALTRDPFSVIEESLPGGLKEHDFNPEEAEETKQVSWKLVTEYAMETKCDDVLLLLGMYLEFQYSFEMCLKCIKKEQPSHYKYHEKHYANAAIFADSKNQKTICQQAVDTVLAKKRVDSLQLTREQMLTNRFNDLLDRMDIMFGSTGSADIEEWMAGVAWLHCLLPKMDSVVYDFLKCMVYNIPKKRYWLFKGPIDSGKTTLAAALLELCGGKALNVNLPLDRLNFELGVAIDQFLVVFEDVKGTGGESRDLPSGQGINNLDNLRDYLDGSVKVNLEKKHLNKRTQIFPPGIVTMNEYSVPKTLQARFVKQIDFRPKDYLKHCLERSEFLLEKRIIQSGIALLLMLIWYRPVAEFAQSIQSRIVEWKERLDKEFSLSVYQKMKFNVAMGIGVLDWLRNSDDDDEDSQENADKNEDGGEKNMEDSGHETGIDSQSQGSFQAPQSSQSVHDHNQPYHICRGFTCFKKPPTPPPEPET

Aminopeptidase N = molecular target: T6, Aminopeptidase N (Plasmodium falciparum FcB1/Columbia, UniProt O96935); assay: malaria alanyl aminopeptidase activity blockers – biochemical, fluorogenic H-Leu-NHMec substrate, 1536-well (AID 1445); parameters: species or system Plasmodium falciparum 3D7, 3D7
T6 sequence (O96935 whole entry): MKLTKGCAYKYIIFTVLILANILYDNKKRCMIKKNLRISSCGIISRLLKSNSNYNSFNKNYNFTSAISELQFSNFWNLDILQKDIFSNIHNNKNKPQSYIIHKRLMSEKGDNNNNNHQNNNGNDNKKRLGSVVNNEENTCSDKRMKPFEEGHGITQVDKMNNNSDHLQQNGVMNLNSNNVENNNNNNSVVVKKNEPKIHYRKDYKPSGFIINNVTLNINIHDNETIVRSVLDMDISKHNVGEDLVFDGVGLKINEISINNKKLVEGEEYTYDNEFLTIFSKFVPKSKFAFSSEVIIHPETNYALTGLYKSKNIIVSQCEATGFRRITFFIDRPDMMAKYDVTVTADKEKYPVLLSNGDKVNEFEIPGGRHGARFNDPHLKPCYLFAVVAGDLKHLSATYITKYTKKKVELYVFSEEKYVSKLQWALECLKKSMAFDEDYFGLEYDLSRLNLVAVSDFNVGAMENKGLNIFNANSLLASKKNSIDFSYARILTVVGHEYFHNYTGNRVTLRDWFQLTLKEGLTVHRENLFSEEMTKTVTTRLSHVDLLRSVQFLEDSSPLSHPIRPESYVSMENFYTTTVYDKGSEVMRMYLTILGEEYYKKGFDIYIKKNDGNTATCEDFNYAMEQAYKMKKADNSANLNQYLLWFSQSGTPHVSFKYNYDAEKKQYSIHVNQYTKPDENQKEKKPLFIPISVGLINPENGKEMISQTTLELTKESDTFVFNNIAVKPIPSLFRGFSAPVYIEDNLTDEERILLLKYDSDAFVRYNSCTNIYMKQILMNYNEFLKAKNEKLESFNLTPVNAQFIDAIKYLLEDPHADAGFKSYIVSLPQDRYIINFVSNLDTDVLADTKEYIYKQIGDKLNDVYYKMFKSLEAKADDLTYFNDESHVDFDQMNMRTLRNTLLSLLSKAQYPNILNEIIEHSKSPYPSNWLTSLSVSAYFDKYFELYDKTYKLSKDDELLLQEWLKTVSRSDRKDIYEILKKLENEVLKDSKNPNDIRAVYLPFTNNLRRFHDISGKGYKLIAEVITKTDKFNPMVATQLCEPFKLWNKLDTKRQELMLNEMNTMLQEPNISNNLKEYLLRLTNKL

[6] = NIH3T3 cell viability loss – ATP luminescence, mouse fibroblasts, counter-screen, dose response (AID 2010); format: functional, cell-based;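 note: cells exposed to compound for about 90 hours before reading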
[7] = Trypanosoma cruzi growth suppression in host cells – NIH3T3 host cells, beta-gal luminescence, confirmation (AID 2044); format: functional, cell-based;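 note: intracellular parasites grown in NIH/3T3 mouse fibroblasts as host cells; luminescent beta-galactosidase reporter signal from transgenic T. cruzi replicating inside host cells; inhibitors lower the luminescence signal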
cells [8] = format: functional, cell-based
cells [9] = format: functional, cell-based; remark: listed apart in the source

Nonstructural protein 1, sequence (Q194T2 whole entry): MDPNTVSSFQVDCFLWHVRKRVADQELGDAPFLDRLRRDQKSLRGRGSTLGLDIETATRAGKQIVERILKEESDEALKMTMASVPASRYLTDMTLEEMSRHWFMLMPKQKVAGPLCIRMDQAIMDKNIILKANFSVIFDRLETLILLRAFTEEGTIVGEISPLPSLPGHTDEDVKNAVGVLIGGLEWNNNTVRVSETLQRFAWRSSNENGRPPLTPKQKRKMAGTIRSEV

Structure (SMILES): Cc1nnc2sc(SCC(=O)Nc3ccc(Cl)cc3)nn2c1=O
- IC50 (Nonstructural protein 1): 9.75 µM (active)

Structure (SMILES): COc1ccc(CC(=O)Nc2nnc(C(C)C)s2)cc1
- IC50 [1]: 50 µM (inactive)

Structure (SMILES): CCOc1ccc(Nc2nc3cc(S(=O)(=O)N(CC)CC)ccc3o2)cc1
- IC50 [2]: > 100 µM (inactive)

Structure (SMILES): O=C(Nc1ccccc1Oc1cccnc1)C1CCCN(Cc2ccc(F)cc2)C1 (stereo unspecified)
- EC50 [3]: 3.35 µM (active)

Structure (SMILES): CCOc1cc(C2C(C#N)=C(N)Oc3[nH]nc(-c4ccccc4)c32)ccc1O (stereo unspecified)
- IC50 [4]: > 20 µM (inactive)
- AC50 [5]: 1.81 µM (active)
- EC50 (Protein RecA): 0.689 µM (active)
- IC50 (Leucine aminopeptidase): 77.1 µM (active)

Structure (SMILES): CSc1n/c(=N/C(C)=O)ss1
- IC50 [2]: 25.8 µM (active)

Structure (SMILES): Oc1ccc(-c2[nH]ncc2-c2cccc3cccnc23)c(O)c1
- IC50 (Large T antigen): 25.7 µM (active)
- IC50 [1]: > 64 µM (inactive)

Structure (SMILES): Cc1cc(C)n(CC(=O)N/N=C/c2cc(Br)cc([N+](=O)[O-])c2O)n1
- IC50 (Aminopeptidase N): 19.2 µM (active)
- EC50 [6]: 15.9 µM (active)
- EC50 [7]: 0.678 µM (active)

Structure (SMILES): COc1cc2cc(C(c3nnnn3C3CCCC3)N(C)C3CCCCC3)c(O)nc2cc1OC (stereo unspecified)
- IC50 [1]: > 64 µM (inactive)

Structure (SMILES): O=C(NN1C(=O)c2ccccc2NC12CCCCC2)c1ccccc1
- IC50 (Aminopeptidase N): 6.87 µM (active)

Structure (SMILES): Cc1ccc(/C(=N/Nc2ncnc3ccccc23)C(=O)O)cc1
- EC50 (cells [8]): > 350 µM (not active)
- EC50 (cells [9]): > 350 µM (not active)
- IC50 (Nonstructural protein 1): 9.46 µM (active)

Structure (SMILES): Fc1ccc(C2CCCN2Cc2nc(Cc3ccccc3)no2)cc1 (stereo unspecified)
- IC50 [1]: 50 µM (inactive)

Structure (SMILES): O=C(Cc1ccccc1[N+](=O)[O-])OCc1cccc([N+](=O)[O-])c1
- EC50 [3]: 0.376 µM (active)
